In publication PMC2813863, “In Vivo Evaluation of α7 Nicotinic Acetylcholine Receptor Agonists [^11C]A-582941 and [^11C]A-844606 in Mice and Conscious Monkeys” (PLoS ONE, 2010):
Several values for one entry are separate records, joined by “and”; a condition that tells them apart may be missing. Identical values can stand only once. Like-named read-outs stand apart in the source and are kept apart here.

Columns and labels:
[1] = assay type: in vivo, mice; settings: mice, i.v.
Procedure: Each tracer was intravenously injected into mice, and then the animals were killed by cervical dislocation at 1, 5, 15, 30 and 60 min after injection (n = 4). The body weight of the mice was 34.7±1.2 g. The injected doses of tracers were 2 MBq/0.049–0.051 nmol. Blood was collected by heart puncture and tissues were harvested. The carbon-11 in the samples was counted with an auto-gamma-counter (LKB Wallac Compu-gamma 1282CS, Turku, Finland) and the tissues were weighed. The tissue uptake of carbon-11 was expressed as the %ID/g.

[2] = mice
Procedure: Each tracer (180 MBq/3.0–13.4 nmol) was intravenously injected into mice, and 15 and 30 min later the animals were killed by cervical dislocation (n = 3). Blood was removed by heart puncture using a heparinized syringe, and the brain was removed. The blood was centrifuged at 7,000×g for 1 min at 4°C to obtain plasma, which was denatured with 5 volume of CH3CN. The mixture was centrifuged under the same conditions, and the precipitate was re-suspended in 0.5 ml of CH3CN, followed by centrifugation. This procedure was repeated three times. The cerebral cortex (approximately 200 mg) was homogenized in 1.0 ml of 50% CH3CN. The homogenate was then treated as described above. The combined supernatant was diluted with 2 volumes of water and then analyzed by HPLC with a radioactivity detector (FLO-ONE 150TR; Packard Instrument, Meriden, CT). A Radial-Pak C18 column equipped with an RCM 8×10 module (8 mm ×100 mm; Waters, Milford, MA) was used with a mixture of CH3CN/H2O/triethyl amine (40/60/0.1 for [^11C]A-582941 and 70/30/0.1 for [^11C]A-844606, v/v/v) as the mobile phase at a flow rate of 2 ml/min. The elution profile was monitored with a radioactivity detector. The retention times of [^11C]A-582941 and [^11C]A-844606 were 6.4 and 8.8 min, respectively. The recovery in the eluate of the injected radioactivity was essentially quantitative.

[3] = assay type: in vivo, rhesus monkeys (Macaca mulatta); settings: monkey
Procedure: Blood samples were centrifuged to separate the plasma, weighed, and subjected to radioactivity measurement. For metabolite analysis, methanol was added to some plasma samples, the resulting solutions were centrifuged, and the supernatants were developed with TLC plates (AL SIL G/UV; Whatman, Kent, UK) using a mobile phase of dichloromethane/diethyl ether/ethanol/triethylamine (20/20/2/2, v/v/v/v). At each sampling time point, the ratio of radioactivity in the unmetabolized fraction to that in the total plasma (metabolite plus unmetabolite) was determined using a phosphoimaging plate (BAS-1500 MAC; Fuji Film Co., Tokyo, Japan). The pTACs corrected for metabolite were obtained. The tTACs in each region of interest (ROI) in the brain were calculated as the %ID/ml or as a standardized uptake value (SUV), (activity/ml tissue)/(injected activity/g body weight). Using the tTACs and the metabolite-corrected pTAC, the V T for each tracer was evaluated by Logan graphical analysis.

[11CH3]N1CC2CN(c3ccc(-c4ccccc4)nn3)CC2C1 (centres unmarked) [[^11C]A-582941, 2-[^11C]Methyl-5-[6-phenylpyridazine-3-yl]octahydropyrrolo[3,4-c]pyrrole]
time of peak radioactivity in the brain [1]: 5 min | % Injected dose/g tissue, Blood ([1]; 1 min after injection): 1.84±0.43 % Injected dose/g tissue | % Injected dose/g tissue, Brain ([1]; 1 min after injection): 2.61±0.33 % Injected dose/g tissue | % Injected dose/g tissue, Heart ([1]; 1 min after injection): 4.33±0.82 % Injected dose/g tissue | % Injected dose/g tissue, Kidney ([1]; 1 min after injection): 13.87±1.58 % Injected dose/g tissue | % Injected dose/g tissue, Liver ([1]; 1 min after injection): 3.59±0.45 % Injected dose/g tissue | % Injected dose/g tissue, Lung ([1]; 1 min after injection): 18.09±4.18 % Injected dose/g tissue | % Injected dose/g tissue, Muscle ([1]; 1 min after injection): 2.02±0.34 % Injected dose/g tissue | % Injected dose/g tissue, Pancreas ([1]; 1 min after injection): 4.65±0.76 % Injected dose/g tissue | % Injected dose/g tissue, S. intestine ([1]; 1 min after injection): 3.13±0.51 % Injected dose/g tissue | % Injected dose/g tissue, Spleen ([1]; 1 min after injection): 2.70±0.31 % Injected dose/g tissue | % Injected dose/g tissue, Blood ([1]; 5 min after injection): 0.89±0.04 % Injected dose/g tissue | % Injected dose/g tissue, Brain ([1]; 5 min after injection): 3.92±0.49 % Injected dose/g tissue | % Injected dose/g tissue, Heart ([1]; 5 min after injection): 2.16±0.13 % Injected dose/g tissue | % Injected dose/g tissue, Kidney ([1]; 5 min after injection): 8.77±0.79 % Injected dose/g tissue | % Injected dose/g tissue, Liver ([1]; 5 min after injection): 10.52±0.69 % Injected dose/g tissue | % Injected dose/g tissue, Lung ([1]; 5 min after injection): 12.52±8.59 % Injected dose/g tissue | % Injected dose/g tissue, Muscle ([1]; 5 min after injection): 1.40±0.16 % Injected dose/g tissue | % Injected dose/g tissue, Pancreas ([1]; 5 min after injection): 7.47±0.54 % Injected dose/g tissue | % Injected dose/g tissue, S. intestine ([1]; 5 min after injection): 4.49±0.60 % Injected dose/g tissue | % Injected dose/g tissue, Spleen ([1]; 5 min after injection): 5.53±0.38 % Injected dose/g tissue | % Injected dose/g tissue, Blood ([1]; 15 min after injection): 0.76±0.06 % Injected dose/g tissue | % Injected dose/g tissue, Brain ([1]; 15 min after injection): 3.63±0.28 % Injected dose/g tissue | % Injected dose/g tissue, Heart ([1]; 15 min after injection): 1.72±0.17 % Injected dose/g tissue | % Injected dose/g tissue, Kidney ([1]; 15 min after injection): 6.02±0.97 % Injected dose/g tissue | % Injected dose/g tissue, Liver ([1]; 15 min after injection): 12.38±1.68 % Injected dose/g tissue | % Injected dose/g tissue, Lung ([1]; 15 min after injection): 7.02±0.10 % Injected dose/g tissue | % Injected dose/g tissue, Muscle ([1]; 15 min after injection): 1.06±0.09 % Injected dose/g tissue | % Injected dose/g tissue, Pancreas ([1]; 15 min after injection): 5.80±0.80 % Injected dose/g tissue | % Injected dose/g tissue, S. intestine ([1]; 15 min after injection): 4.61±0.60 % Injected dose/g tissue | % Injected dose/g tissue, Spleen ([1]; 15 min after injection): 5.13±0.72 % Injected dose/g tissue | % Injected dose/g tissue, Blood ([1]; 30 min after injection): 0.64±0.06 % Injected dose/g tissue | % Injected dose/g tissue, Brain ([1]; 30 min after injection): 2.68±0.29 % Injected dose/g tissue | % Injected dose/g tissue, Heart ([1]; 30 min after injection): 1.39±0.10 % Injected dose/g tissue | % Injected dose/g tissue, Kidney ([1]; 30 min after injection): 4.83±0.77 % Injected dose/g tissue | % Injected dose/g tissue, Liver ([1]; 30 min after injection): 9.87±0.80 % Injected dose/g tissue | % Injected dose/g tissue, Lung ([1]; 30 min after injection): 6.06±0.31 % Injected dose/g tissue | % Injected dose/g tissue, Muscle ([1]; 30 min after injection): 0.82±0.07 % Injected dose/g tissue | % Injected dose/g tissue, Pancreas ([1]; 30 min after injection): 4.68±0.51 % Injected dose/g tissue | % Injected dose/g tissue, S. intestine ([1]; 30 min after injection): 5.33±1.20 % Injected dose/g tissue | % Injected dose/g tissue, Spleen ([1]; 30 min after injection): 3.64±0.14 % Injected dose/g tissue | % Injected dose/g tissue, Blood ([1]; 60 min after injection): 0.57±0.05 % Injected dose/g tissue | % Injected dose/g tissue, Brain ([1]; 60 min after injection): 1.85±0.10 % Injected dose/g tissue | % Injected dose/g tissue, Heart ([1]; 60 min after injection): 1.02±0.08 % Injected dose/g tissue | % Injected dose/g tissue, Kidney ([1]; 60 min after injection): 3.74±0.20 % Injected dose/g tissue | % Injected dose/g tissue, Liver ([1]; 60 min after injection): 7.24±0.74 % Injected dose/g tissue | % Injected dose/g tissue, Lung ([1]; 60 min after injection): 4.13±0.15 % Injected dose/g tissue | % Injected dose/g tissue, Muscle ([1]; 60 min after injection): 0.66±0.05 % Injected dose/g tissue | % Injected dose/g tissue, Pancreas ([1]; 60 min after injection): 3.69±0.42 % Injected dose/g tissue | % Injected dose/g tissue, S. intestine ([1]; 60 min after injection): 4.53±1.21 % Injected dose/g tissue | % Injected dose/g tissue, Spleen ([1]; 60 min after injection): 2.89±0.90 % Injected dose/g tissue | percentage of the unchanged form in the brain ([2]; 15 min after injection): 95.4±1.9% | percentage of the unchanged form in the plasma ([2]; 15 min after injection): 40.5±7.1% | percentage of the unchanged form in the brain ([2]; 30 min after injection): 97.4±0.8% | percentage of the unchanged form in the plasma ([2]; 30 min after injection): 26.8±6.6% and 26.8% | percentage of the unchanged form in plasma ([3]; SSR180711-blocking condition (n = 1), 0.3 min): 93.2% | percentage of the unchanged form in plasma ([3]; SSR180711-blocking condition (n = 1), 0.7 min): 93.9% | percentage of the unchanged form in plasma ([3]; SSR180711-blocking condition (n = 1), 1.1 min): 93.0% | percentage of the unchanged form in plasma ([3]; SSR180711-blocking condition (n = 1), 6.0 min): 74.2% | percentage of the unchanged form in plasma ([3]; SSR180711-blocking condition (n = 1), 10 min): 56.7% | percentage of the unchanged form in plasma ([3]; SSR180711-blocking condition (n = 1), 30 min): 28.3% | percentage of the unchanged form in plasma ([3]; SSR180711-blocking condition (n = 1), 45 min): 23.2% | percentage of the unchanged form in plasma ([3]; SSR180711-blocking condition (n = 1), 60 min): 20.4% | percentage of the unchanged form in plasma ([3]; SSR180711-blocking condition (n = 1), 75 min): 22.2% | percentage of the unchanged form in plasma ([3]; SSR180711-blocking condition (n = 1), 90 min): 15.9% | percentage of the unchanged form in plasma ([3]; baseline, 10 min): 71.6±4.1% | percentage of the unchanged form in plasma ([3]; baseline, 30 min): 42.8±7.8% and 42.8% | percentage of the unchanged form in plasma ([3]; baseline, 45 min): 34.0±7.4% | percentage of the unchanged form in plasma ([3]; baseline, 60 min): 26.9±5.3% | percentage of the unchanged form in plasma ([3]; baseline, 75 min): 23.0±3.4% | percentage of the unchanged form in plasma ([3]; baseline, 90 min): 19.2±2.6%
